Tested on: KRAS mutant colorectal cancer cells
Experiment: Cellular senescence assay, separate examples with single drugs
Assay type: cell-based
Method: Senescence is a state when cells enter a stable growth arrest. Unlike a quiescent cell, a senescent cell will not re-enter the cell cycle in response to any known physiological stimuli. A biomarker of senescence is the increased level of β-galactosidase activity at pH 6.0. Cellular senescence assay was performed with Senescence β-Galactosidase Cell Staining Kit (Cell Signaling, USA) according to the manufacturer's instructions. Briefly, cells cultured in 6-well tissue culture plates were treated with the designated drugs or DMSO. The cells were continually incubated for additional 4-8 days before being fixed for further testing. For senescence assay, b-Galactosidase Staining Solution was added to the fixed cells and the plates were incubated at 37° C. to allow color to develop. Microscopic images were then taken and the cells in senescence were indicated by the development of blue color (shown as black spots in the figures). The experimental design is the same as in Example 15.

SMILES | induction of cell senescence
COc1cccc2c1C(=O)c1c(O)c3c(c(O)c1C2=O)C[C@@](O)(C(=O)CO)C[C@@H]3O[C@H]1C[C@H](N)[C@H](O)[C@H](C)O1 [doxorubicin] | did not induce cell senescence
COc1cc([C@@H]2c3cc4c(cc3[C@@H](O[C@@H]3O[C@@H]5CO[C@@H](C)O[C@H]5[C@H](O)[C@H]3O)[C@H]3COC(=O)[C@H]23)OCO4)cc(OC)c1O [etoposide] | did not induce cell senescence

— patent US20240058339A1, “COMBINATION THERAPY FOR CANCERS WITH KRAS MUTATION” (COTHERA BIOSCIENCE, INC., priority 2019, published 2024)
